From patent US10508109B2 (priority 2015, dated 2019)
Counter-ions that a name gives are not always drawn. Like-named read-outs stand apart in the source and are kept apart here.

Experiments:
SUV39H2 = SUV39H2 (Homo sapiens (Human), UniProt Q9H5I1); experiment: biochemical; type: biochemical; details: 3H-SAM 100 nM, H3 Histone Peptide 350 nM, room temperature 3 hours
Method in brief: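 Human SUV39H2, at a lot-specific concentration set by specific activity, was incubated with test compounds for 3 h at room temperature, then stopped with streptavidin SPA beads (50 μg/well final).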

A549 = experiment: Cell-based assay, anti-proliferative activity (Cell Counting Kit-8, 72 hours); details: Homo sapiens, read-out: A549 IC50
Method in brief: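 Cells were seeded in 96-well plates and exposed to candidate inhibitors. Cellular growth was then determined with the colorimetric kit, and IC50 values were calculated from the growth data.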

[1] = A549 cells, 72 hours exposure, Cell Counting Kit-8

Chain of SUV39H2 (Q9H5I1 whole entry): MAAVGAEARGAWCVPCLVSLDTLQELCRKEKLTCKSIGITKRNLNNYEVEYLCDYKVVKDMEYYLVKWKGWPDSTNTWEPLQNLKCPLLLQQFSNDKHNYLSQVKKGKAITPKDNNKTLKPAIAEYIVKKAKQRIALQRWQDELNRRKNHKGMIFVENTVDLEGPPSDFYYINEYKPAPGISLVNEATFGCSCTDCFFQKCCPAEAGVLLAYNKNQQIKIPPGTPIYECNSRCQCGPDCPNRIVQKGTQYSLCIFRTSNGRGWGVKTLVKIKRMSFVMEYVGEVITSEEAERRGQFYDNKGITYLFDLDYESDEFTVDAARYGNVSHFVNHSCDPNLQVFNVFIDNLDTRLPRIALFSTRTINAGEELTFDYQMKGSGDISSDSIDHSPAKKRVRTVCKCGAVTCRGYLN

| Structure (SMILES) | IC50 (SUV39H2) [nM] | IC50 (A549; [1]) [nM] | IC50 (A549; A549, 72 h) [nM] |
| --- | --- | --- | --- |
| COc1cc(OC)c(-c2cn3ccc(N[C@H]4CC[C@H](Nc5nccc(N6CCOCC6)n5)CC4)cc3n2)cc1Cl [Example 406, (1r,4r)-N^1-(2-(5-chloro-2,4-dimethoxyphenyl)imidazo[1,2-a]pyridin-7-yl)-N^4-(4-morpholinopyrimidin-2-yl)cyclohexane-1,4-diamine] | 37 | 740 |  |
| COc1cc(OC)c(-c2cn3ccc(N4CC[C@H](NC(C)c5ccncc5)C4)cc3n2)cc1Cl (stereo partly drawn) [Example 407, (3S)-1-(2-(5-chloro-2,4-dimethoxyphenyl)imidazo[1,2-a]pyridin-7-yl)-N-(1-(pyridin-4-yl)ethyl)pyrrolidin-3-amine dihydrochloride] | 7.7 |  | 950 |
| COc1cc(OC(F)F)c(-c2cn3ccc(N4CC[C@H](NC(=O)OC(C)(C)C)C4)cc3n2)cc1Cl [Example 408, (S)-tert-butyl (1-(2-(5-chloro-2-(difluoromethoxy)-4-methoxyphenyl)imidazo[1,2-a]pyridine-7-yl)pyrrolidin-3-yl)carbamate] | 12.7 | 560 |  |
| COc1cc(OC)c(-c2cn3ccc(N4CCN(/N=C\c5ccncc5)CC4)cc3n2)cc1Cl [Example 410, (Z)-4-(2-(5-chloro-2,4-dimethoxyphenyl)imidazo[1,2-a]pyridin-7-yl)-N-(pyridin-4-ylmethylene)piperazin-1-amine] | 8.29 | 780 |  |
| COc1cc(OC)c(-c2cn3ccc(N[C@H]4CC[C@@H](NCc5ccc([N+](=O)[O-])cc5)CC4)cc3n2)cc1Cl [Example 411, cis-N^1-(2-(5-chloro-2,4-dimethoxyphenyl)imidazo[1,2-a]pyridin-7-yl)-N^4-(4-nitrobenzyl)cyclohexane-1,4-diamine] | 26.3 | 370 |  |
| COc1cc(OC)c(-c2cn3ccc(N4CC[C@H](NCc5ccnc(F)c5)C4)cc3n2)cc1Cl [Example 412, (S)-1-(2-(5-chloro-2,4-dimethoxyphenyl)imidazo[1,2-a]pyridin-7-yl)-N-((2-fluoropyridin-4-yl)methyl)pyrrolidin-3-amine dihydrochloride] | 6.83 |  | 850 |
| COc1cc(OC)c(-c2cn3ccc(N4CC[C@H](NCc5ccnc(Cl)c5)C4)cc3n2)cc1Cl [Example 413, (S)-1-(2-(5-chloro-2,4-dimethoxyphenyl)imidazo[1,2-a]pyridin-7-yl)-N-((2-chloropyridin-4-yl)methyl)pyrrolidin-3-amine dihydrochloride] | 6.35 |  | 770 |
| COc1cc(OC)c(-c2cn3ccc(N[C@H]4CC[C@H](NCc5ccccc5F)CC4)cc3n2)cc1Cl [Example 414, (1r,4r)-N^1-(2-(5-chloro-2,4-dimethoxyphenyl)imidazo[1,2-a]pyridin-7-yl)-N^4-(2-fluorobenzyl)cyclohexane-1,4-diamine] | 84.8 | 820 |  |
| COc1cc(OC)c(-c2cn3ccc(N[C@H]4CC[C@H](NCc5cccc(C)c5)CC4)cc3n2)cc1Cl [Example 415, (1r,4r)-N^1-(2-(5-chloro-2,4-dimethoxyphenyl)imidazo[1,2-a]pyridin-7-yl)-N^4-(3-methylbenzyl)cyclohexane-1,4-diamine] | 98 | 620 |  |
| COc1cc(OC)c(-c2cn3ccc(N4CC[C@H](NC(C)C5CCCCC5)C4)cc3n2)cc1Cl (stereo partly drawn) [Example 416, (3S)-1-(2-(5-chloro-2,4-dimethoxyphenyl)imidazo[1,2-a]pyridin-7-yl)-N-(1-cyclohexylethyl)pyrrolidin-3-amine] | 47.6 | 670 |  |
| COc1cc(OC)c(-c2cn3ccc(N4CCN(c5cnc(N6CCCC(N)C6)nc5)CC4)cc3n2)cc1Cl (centres unmarked) [Example 417, 1-(5-(4-(2-(5-chloro-2,4-dimethoxyphenyl)imidazo[1,2-a]pyridin-7-yl)piperazin-1-yl)pyrimidin-2-yl)piperidin-3-amine] | 9.91 | 620 |  |
| COc1cc(OC)c(-c2cn3ccc(N[C@H]4CC[C@@H](NCc5ccc(N(C)C)cc5)CC4)cc3n2)cc1Cl [Example 418, cis-N^1-(2-(5-chloro-2,4-dimethoxyphenyl)imidazo[1,2-a]pyridin-7-yl)-N^4-(4-(dimethylamino)benzyl)cyclohexane-1,4-diamine bis(2,2,2-trifluoroacetate)] | 41.3 | 610 |  |
| COc1cc(OC)c(-c2cn3ccc(N[C@H]4CC[C@H](NCc5ccc(N(C)C)cc5)CC4)cc3n2)cc1Cl [Example 419, (1r,4r)-N^1-(2-(5-chloro-2,4-dimethoxyphenyl)imidazo[1,2-a]pyridin-7-yl)-N^4-(4-(dimethylamino)benzyl)cyclohexane-1,4-diamine] | 82 | 490 |  |
| COc1cc(OC)c(-c2cn3ccc(N[C@H]4CC[C@H](NCc5ccccc5O)CC4)cc3n2)cc1Cl [Example 420, 2-((((1r,4r)-4-((2-(5-chloro-2,4-dimethoxyphenyl)imidazo[1,2-a]pyridin-7-yl)amino)cyclohexyl)amino)methyl)phenol] | 64.6 | 720 |  |
| COc1cc(OC)c(-c2cn3ccc(N4CCN(c5ncc(N)cn5)CC4)cc3n2)cc1Cl [Example 422, 2-(4-(2-(5-chloro-2,4-dimethoxyphenyl)imidazo[1,2-a]pyridin-7-yl)piperazin-1-yl)pyrimidin-5-amine hydrochloride] | 11.2 |  | 720 |
| COc1cc(OC)c(-c2cn3ccc(N[C@H]4CC[C@@H](NCC5CCN(C(=O)OC(C)(C)C)CC5)CC4)cc3n2)cc1Cl [Example 423, tert-butyl 4-(((cis-4-((2-(5-chloro-2,4-dimethoxyphenyl)imidazo[1,2-a]pyridin-7-yl)amino)cyclohexyl)amino)methyl)piperidine-1-carboxylate] | 26.9 | 590 |  |
| CNC1CCN(c2cc(N3CCN(c4ccn5cc(-c6cc(Cl)c(OC)cc6OC)nc5c4)CC3)ncn2)C1 (centres unmarked) [Example 424, 1-(6-(4-(2-(5-chloro-2,4-dimethoxyphenyl)imidazo[1,2-a]pyridin-7-yl)piperazin-1-yl)pyrimidin-4-yl)-N-methylpyrrolidin-3-amine] | 11.4 | 700 |  |
| COc1cc(OC)c(-c2cn3ccc(N4CC[C@H](NC(C)C5CCN(C(=O)OC(C)(C)C)CC5)C4)cc3n2)cc1Cl (stereo partly drawn) [Example 425, tert-butyl 4-(1-(((S)-1-(2-(5-chloro-2,4-dimethoxyphenyl)imidazo[1,2-a]pyridine-7-yl)pyrrolidin-3-yl)amino)ethyl)piperidine-1-carboxylate] | 57.9 | 890 |  |
| CNC1CCN(c2ccnc(N3CCN(c4ccn5cc(-c6cc(Cl)c(OC)cc6OC)nc5c4)CC3)n2)CC1 [Example 426, 1-(2-(4-(2-(5-chloro-2,4-dimethoxyphenyl)imidazo[1,2-a]pyridin-7-yl)piperazin-1-yl)pyrimidin-4-yl)-N-methylpiperidin-4-amine] | 17.7 | 670 |  |
| COc1cc(OC)c(-c2cn3ccc(N4CCN(c5ncc(N6CCOCC6)cn5)CC4)cc3n2)cc1Cl [Example 427, 4-(2-(4-(2-(5-chloro-2,4-dimethoxyphenyl)imidazo[1,2-a]pyridin-7-yl)piperazin-1-yl)pyrimidin-5-yl)morpholine] | 25.1 | 820 |  |
| CNC1CCCN(c2ncc(N3CCN(c4ccn5cc(-c6cc(Cl)c(OC)cc6OC)nc5c4)CC3)cn2)C1 (centres unmarked) [Example 428, 1-(5-(4-(2-(5-chloro-2,4-dimethoxyphenyl)imidazo[1,2-a]pyridin-7-yl)piperazin-1-yl)pyrimidin-2-yl)-N-methylpiperidin-3-amine] | 14.3 | 770 |  |
| COc1cc(OC)c(-c2cn3ccc(N4CCCN(C(C)=O)CC4)cc3n2)cc1Cl [Example 429, 1-(4-(2-(5-chloro-2,4-dimethoxyphenyl)imidazo[1,2-a]pyridin-7-yl)-1,4-diazepan-1-yl)ethanone] | 16.1 | 10000 |  |
| COc1cc(OC)c(-c2cn3ccc(N4CCN(c5ncc(N6CCN(C)CC6)cn5)CC4)cc3n2)cc1Cl [Example 430, 2-(5-chloro-2,4-dimethoxyphenyl)-7-(4-(5-(4-methylpiperazin-1-yl)pyrimidin-2-yl)piperazin-1-yl)imidazo[1,2-a]pyridine] | 13.7 | 950 |  |
| COc1cc(OC)c(-c2cn3ccc(N4CCN(c5nc(N)nc(N6CCCC6)n5)CC4)cc3n2)cc1Cl [Example 431, 4-(4-(2-(5-chloro-2,4-dimethoxyphenyl)imidazo[1,2-a]pyridin-7-yl)piperazin-1-yl)-6-(pyrrolidin-1-yl)-1,3,5-triazin-2-amine] | 88.4 | 760 |  |
| COc1cc(OCCCN(C)C)c(-c2cn3ccc(N4CC[C@H](N)C4)cc3n2)cc1Cl [Example 432, (S)-1-(2-(5-chloro-2-(3-(dimethylamino)propoxy)-4-methoxyphenyl)imidazo[1,2-a]pyridin-7-yl)pyrrolidin-3-amine] | 31.8 | 710 |  |
| COc1cc(OC)c(-c2cn3ccc(N[C@H]4C[C@H]5CC[C@@H](C4)N5Cc4ccccc4)cc3n2)cc1Cl [Example 433, N-((1R,3r,5S)-8-benzyl-8-azabicyclo[3.2.1]octan-3-yl)-2-(5-chloro-2,4-dimethoxyphenyl)imidazo[1,2-a]pyridin-7-amine] | 57.6 | 820 |  |
| COc1cc(OC)c(-c2cn3ccc(N4CCCN(CC5CCCCC5)CC4)cc3n2)cc1Cl [Example 435, 2-(5-chloro-2,4-dimethoxyphenyl)-7-(4-(cyclohexylmethyl)-1,4-diazepan-1-yl)imidazo[1,2-a]pyridine] | 6.46 | 650 |  |
| COc1cc(OC)c(-c2cn3ccc(N4CCN(c5nc(N)nc(N6CCC(N(C)C)C6)n5)CC4)cc3n2)cc1Cl (centres unmarked) [Example 436, 4-(4-(2-(5-chloro-2,4-dimethoxyphenyl)imidazo[1,2-a]pyridin-7-yl)piperazin-1-yl)-6-(3-(dimethylamino)pyrrolidin-1-yl)-1,3,5-triazin-2-amine] | 11.7 | 650 |  |
